# Data reported in patent US20070128217A1 (priority 2003, published 2007).
# What was measured:
# [1] = tested on: rabbit serum obtained by immunizing a rabbit with the SARS-CoV strain Frankfurt 1; type: binding; parameters: Binding of a rabbit serum to linear peptides / Binding of a rabbit serum to looped peptides / Rabbit serum linear peptides / Rabbit serum looped peptides / Binding of a rabbit serum to linear peptides of protein N of SARS-CoV Urbani (Rabbit serum linear peptides) / Binding of a rabbit serum to looped/cyclic peptides of protein N of SARS-CoV Urbani (Rabbit serum looped peptides): unit not given here
# [2] = tested on: control sera (pooled serum of ten healthy LUMC hospital workers; commercial negative donor pooled serum from the Dutch bloodbank); type: binding, human; parameters: Binding of Control serum LUMC to linear peptides / Binding of Control serum Blood-bank to linear peptides / Binding of Control serum LUMC to looped peptides / Binding of Control Serum Blood-Bank to Looped peptides / Binding of Control serum LUMC to linear peptides of the protein M of SARS-CoV Urbani / Binding of Control serum Blood-bank to linear peptides of the protein M of SARS-CoV Urbani / Binding of Control serum LUMC to looped peptides of the protein M of SARS-CoV Urbani / Binding of Control Serum Blood-Bank to Looped peptides of the protein M of SARS-CoV Urbani: unit not given here
# [3] = tested on: antibodies in sera from SARS patients (sera 1a, 1b, 2, 6, 37, 62, London, SARS-yellow, SARS-green); type: binding, human; parameters: Binding of serum 6 to linear peptides of protein X1 of SARS-CoV Urbani / Binding of serum 37 to linear peptides of protein X1 of SARS-CoV Urbani / Binding of serum 6 to looped/cyclic peptide (PEPSCAN-ELISA) / Binding of serum 37 to looped/cyclic peptide (PEPSCAN-ELISA) / Binding of serum 37 to looped/cyclic peptides of protein X1 of SARS-CoV Urbani / Binding of serum 6 to linear peptides of protein X2 / Binding of serum 37 to linear peptides of protein X2 / Binding of serum 37 to looped/cyclic peptides of protein X2 of SARS-CoV Urbani / Binding of serum 6 to linear peptides of protein M of SARS-CoV Urbani / Binding of serum 37 to linear peptides of protein M of SARS-CoV Urbani / Binding of serum 6 to looped/cyclic peptides of protein M of SARS-CoV Urbani / Binding of serum 37 to looped/cyclic peptides of protein M of SARS-CoV Urbani / Binding of serum 6 to linear peptides of protein X3 of SARS-CoV Urbani / Binding of serum 37 to linear peptides of protein X3 of SARS-CoV Urbani / Binding of serum 37 to looped/cyclic peptides of protein X3 of SARS-CoV Urbani / Binding of serum 6 to linear peptides of protein X4 of SARS-CoV Urbani / Binding of serum 37 to linear peptides of protein X4 of SARS-CoV Urbani / Binding of serum 37 to looped/cyclic peptides of protein X4 of SARS-CoV Urbani / Binding of serum 6 to linear peptides of protein X5 of SARS-CoV Urbani / Binding of serum 37 to linear peptides of protein X5 of SARS-CoV Urbani / Binding of serum 37 to looped/cyclic peptides of protein X5 of SARS-CoV Urbani / Binding of serum 6 to linear peptides of protein N of SARS-CoV Urbani / Binding of serum 37 to linear peptides of protein N of SARS-CoV Urbani / Binding of serum 6 to linear peptide (PEPSCAN-ELISA) / Binding of serum 1a to looped/cyclic peptides of protein N of SARS-CoV Urbani / Binding of serum 1b to looped/cyclic peptides of protein N of SARS-CoV Urbani / Binding of serum 2 to looped/cyclic peptides of protein N of SARS-CoV Urbani / Binding of serum 6 to looped/cyclic peptides of protein N of SARS-CoV Urbani / Binding of serum 37 to looped/cyclic peptides of protein N of SARS-CoV Urbani / Binding of serum 62 to looped/cyclic peptides of protein N of SARS-CoV Urbani / Binding of serum London to looped/cyclic peptides of protein N of SARS-CoV Urbani / Binding of serum SARS-green to looped/cyclic peptides of protein N of SARS-CoV Urbani: unit not given here
Sequence,Binding of Control Serum Blood-Bank to Looped peptides [2],Binding of Control serum Blood-bank to linear peptides [2],Binding of Control serum LUMC to linear peptides [2],Binding of Control serum LUMC to looped peptides [2],Binding of a rabbit serum to linear peptides [1],Binding of a rabbit serum to looped peptides [1],other results
ADNKFALTCTSTHFA,0.7,0.8,0.9,0.9,–,–,Rabbit serum linear peptides [1]: 0.7; Rabbit serum looped peptides [1]: 0.2
AEILIIIMRTFRIAI,–,–,–,–,–,–,Rabbit serum linear peptides [1]: 0.3; Rabbit serum looped peptides [1]: 0.0; Binding of Control Serum Blood-Bank to Looped peptides of the protein X3 of SARS-CoV Urbani [2]: 0.7; Binding of Control serum Blood-bank to linear peptides of the protein X3 of SARS-CoV Urbani [2]: 0.7; Binding of Control serum LUMC to linear peptides of the protein X3 of SARS-CoV Urbani [2]: 0.4; Binding of Control serum LUMC to looped peptides of the protein X3 of SARS-CoV Urbani [2]: 0.8
AGHPLGRCDIKDLPK,–,–,–,–,–,–,Rabbit serum linear peptides [1]: 0.1; Rabbit serum looped peptides [1]: 0.1; Binding of Control Serum Blood-Bank to Looped peptides of the protein M of SARS-CoV Urbani [2]: 0.9; Binding of Control serum Blood-bank to linear peptides of the protein M of SARS-CoV Urbani [2]: 1.1; Binding of Control serum LUMC to linear peptides of the protein M of SARS-CoV Urbani [2]: 0.8; Binding of Control serum LUMC to looped peptides of the protein M of SARS-CoV Urbani [2]: 0.7
ANYFVCWHTHNYDYC,0.5,0.7,0.7,0.6,0.1,0.5,–
AQPVKIDNASPASTV,1.0,0.7,0.6,1.0,0.1,0.5,–
ATFFIFNKLVKDPPN,0.8,0.5,0.5,0.8,0.1,0.6,–
CAYCCNIVNVSLVKP,0.9,1.1,0.7,0.7,0.6,0.2,–
CCNIVNVSLVKPTVY,0.4,0.7,0.5,0.5,0.6,0.0,–
CNIVNVSLVKPTVYV,0.6,0.7,0.8,0.8,0.1,0.5,–
CQDPAGGALIARCWY,0.9,0.7,0.3,0.7,–,–,Rabbit serum linear peptides [1]: 0.5; Rabbit serum looped peptides [1]: 0.6
CWHTHNYDYCIPYNS,0.6,0.6,0.7,0.6,0.1,0.7,–
DGSSGVANPAMDPIY,0.5,0.9,0.8,0.4,0.1,0.6,–
DYQIGGYSEDRHSGV,0.5,0.6,0.5,0.7,0.1,0.5,–
EDRHSGVKDYVVVHG,1.1,0.9,0.9,0.7,0.1,0.3,–
EDYQIGGYSEDRHSG,0.4,0.4,0.4,0.5,0.1,0.6,–
FFTLGSITAQPVKID,0.2,0.5,0.5,0.3,1.1,0.0,–
FHPLADNKFALTCTS,0.8,0.8,0.8,0.8,–,–,Rabbit serum linear peptides [1]: 0.4; Rabbit serum looped peptides [1]: 0.2
FNKLVKDPPNVQIHT,0.8,0.8,0.9,0.7,0.1,0.7,–
GDGISTPKLKEDYQI,0.4,0.6,0.5,0.4,0.1,0.5,–
KIIALNKRWQLALYK,–,–,–,–,–,–,Recognition of the peptide by the rabbit serum [1]: recognized; Binding of serum 1a to linear peptides of protein X1 of SARS-CoV Urbani [3]: 0.8; Binding of serum 1a to looped/cyclic peptide (PEPSCAN-ELISA) [3]: 0.7; Binding of serum 1b to linear peptides of protein X1 of SARS-CoV Urbani [3]: 0.7; Binding of serum 1b to looped/cyclic peptide (PEPSCAN-ELISA) [3]: 0.5; Binding of serum 2 to linear peptides of protein X1 of SARS-CoV Urbani [3]: 0.7; Binding of serum 2 to looped/cyclic peptide (PEPSCAN-ELISA) [3]: 0.7; Binding of serum 6 to linear peptides of protein X1 of SARS-CoV Urbani [3]: 1.0; Binding of serum 6 to looped/cyclic peptide (PEPSCAN-ELISA) [3]: 0.8; Binding of serum 37 to linear peptides of protein X1 of SARS-CoV Urbani [3]: 0.8; Binding of serum 37 to looped/cyclic peptide (PEPSCAN-ELISA) [3]: 0.8; Binding of serum 62 to linear peptides of protein X1 of SARS-CoV Urbani [3]: 0.8; Binding of serum 62 to looped/cyclic peptide (PEPSCAN-ELISA) [3]: 0.7; Binding of serum London to linear peptides of protein X1 of SARS-CoV Urbani [3]: 0.4; Binding of serum London to looped/cyclic peptide (PEPSCAN-ELISA) [3]: 0.3; Binding of serum SARS-green to linear peptides of protein X1 of SARS-CoV Urbani [3]: 0.4; Binding of serum SARS-green to looped/cyclic peptide (PEPSCAN-ELISA) [3]: 0.3; Binding of serum SARS-yellow to linear peptides of protein X1 of SARS-CoV Urbani [3]: 0.5; Binding of serum SARS-yellow to looped/cyclic peptide (PEPSCAN-ELISA) [3]: 0.5
RCWLCWKCKSKNPLL,–,–,–,–,0.1,0.7,"Binding of serum 1a to looped/cyclic peptide (PEPSCAN-ELISA) [3]: 0.7; Binding of serum 1b to looped/cyclic peptide (PEPSCAN-ELISA) [3]: 0.5; Binding of serum 2 to looped/cyclic peptide (PEPSCAN-ELISA) [3]: 0.7; Binding of serum 6 to looped/cyclic peptide (PEPSCAN-ELISA) [3]: 0.8; Binding of serum 37 to looped/cyclic peptide (PEPSCAN-ELISA) [3]: 0.8; Binding of serum 62 to looped/cyclic peptide (PEPSCAN-ELISA) [3]: 0.7; Binding of serum London to looped/cyclic peptide (PEPSCAN-ELISA) [3]: 0.4; Binding of serum SARS-green to looped/cyclic peptide (PEPSCAN-ELISA) [3]: 0.4; Binding of serum SARS-yellow to looped/cyclic peptide (PEPSCAN-ELISA) [3]: 0.7; Recognition of the peptide by sera of SARS-CoV infected individuals, and form (linear, looped/cyclic) in which it is recognized [3]: recognized in linear form"
